# Where a name gives a salt, the structure may show the parent alone.
# What was measured:
# isolated rat aorta = experiment: Calcium inhibitory properties: contractile response to potassium-induced depolarization on isolated rat aorta; parameters: species or system isolated organ, male Wistar rats; conditions: Rattus norvegicus, 1 h, read-out: % of the maximum contractional effect; for activity at 0.1 µM: 10^-7 M; for activity at 0.01 µM: 10^-8 M; for activity at 0.001 µM: 10^-9 M; for activity at 1 µM: 10^-6 M
# Method in brief: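 Male Wistar rat aorta strips under 2 g tension in modified Krebs-bicarbonate at 37° C, gassed with CO2/O2; contraction induced by 100 mM KCl potassium-Krebs. Compound incubated 60 min before repeat K+ depolarization; response expressed as % of maximum contraction before compound.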
# [1] = tested on: epinephrine-induced increase in blood-pressure (anti-α effect); experiment: Antiadrenergic properties: anti-α effect (reduction of epinephrine-induced hypertension); type: in vivo; parameters: key to anti-α effect: +: for a reduction < 50%; ++: for a reduction ≥ 50%; +++: for a reduction sub-total (almost complete reduction); conditions: dog
# Procedure: (§1) The object of this test is to determine the capacity of the compounds of the invention for reducing the increase in epinephrine-induced increase in blood-pressure (anti-α effect) and the isoprenaline-induced acceleration in heart rate (anti-β effect), in dogs previously anaesthatized with pentobarbital and atropinized. For each dog, the dose of epinephrine (between 3 and 10 μg/kg) which induced a reproducible increase in the blood-pressure of approximately 133×10^2 Pa and the dose of isoprenaline (1 to 2 μg/kg) which induced a reproducible increase in the heart rate of approximately 70 beats/min. were first determined. The dose of epinephrine and of isoprenaline, determined in this manner, were injected alternately every ten minutes and, after two successive reference responses had been obtained, an amount of the test compound was administered intravenously. The percentage reduction in the hypertension induced by the test compound compared with the reference hypertension previously obtained (approximately 100 mm Hg) was recorded. In both cases, the results of the reduction in blood-pressure or in the heart rate have been expressed as follows: […]
# [2] = tested on: isoprenaline-induced acceleration in heart rate (anti-β effect); experiment: Antiadrenergic properties: anti-β effect (reduction of isoprenaline-induced tachycardia); type: in vivo; parameters: key to anti-β effect: +: for a reduction < 50%; ++: for a reduction ≥ 50%; +++: for a reduction sub-total (almost complete reduction); conditions: dog; for inhibition in vivo at 10 mg/kg: 10 mg/kg i.v., known compounds; for inhibition in vivo at 0.13 mg/kg: 0.13 mg/kg i.v.
# Procedure: as §1, with “the acceleration of the heart rate” for “the hypertension”, “reference tachycardia measured” for “reference hypertension”, “previously” for “previously obtained”, “(approximately 70 beats)” for “(approximately 100 mm Hg)”
# [3] = Acute toxicity, intravenous, Litchfield and Wilcoxon; conditions: mouse, in vivo, mice
# Procedure: The acute toxicity of the compounds of the invention was determined intravenously in mice according to the method of Litchfield and Wilcoxon (J. Pharm. Exp. Therap. […], 96, 99).
# The following results were obtained, expressed in the form of the LD50, compared with a benzoylindolizine derivative, in this case 2-ethyl-3-{4-[3-(di-n-butylamino)propyloxy]benzoyl}indolizine or butoprozine.
# [4] = Canis lupus familiaris, iv, 0.3 mg/kg i.v.
# [5] = Canis lupus familiaris, iv, 5 mg/kg i.v.
# [6] = Canis lupus familiaris, iv, 0.5 mg/kg i.v.
compound,measurement,setting,value
"COc1ccc(CCN(C)CCCOc2ccc(S(=O)(=O)c3c(C(C)C)cn4ccccc34)cc2)cc1OC [Ex. 30, 2-Isopropyl-1-[4-{3-[N-methyl-N-(3,4-dimethoxy-β-phenethyl)amino]propyloxy}benzenesulphonyl]indolizine]",activity at 0.1 µM,isolated rat aorta,9.4%
same,activity at 0.01 µM,isolated rat aorta,40.1%
same,activity at 0.001 µM,isolated rat aorta,81.7%
same,anti-α effect,[1]; 0.1 mg/kg i.v.,+++
same,anti-β effect,[2]; 0.1 mg/kg i.v.,+++
same,LD50,[3],140 mg/kg
"CCCCN(CCCC)CCCOc1ccc(C(=O)c2c(CC)cc3ccccn23)cc1 [Butoprozine, 2-ethyl-3-{4-[3-(di-n-butylamino)propyloxy]benzoyl}indolizine, reference compound]",LD50,[3],23 mg/kg
"CCCCN(CCCC)CCCOc1ccc(S(=O)(=O)c2cc3ccccc3nc2C(C)C)cc1.O=C(O)C(=O)O [Ex. 74, 2-isopropyl-3-{4-[3-(di-n-butylamino)propyloxy]benzenesulphonyl}quinoline oxalate]",activity at 1 µM,isolated rat aorta,22.4%
same,activity at 0.1 µM,isolated rat aorta,67.3%
same,anti-α effect,[1]; 1.2 mg/kg i.v.,+++
same,inhibition in vivo at 1.2 mg/kg,"[2]; Canis lupus familiaris, iv, 1.2 mg/kg i.v.",< 50%
"CCN(CC)CCCOc1ccc(S(=O)(=O)c2c(C(C)C)cn3ccccc23)cc1 [Ex. 15, 2-Isopropyl-1-{4-[3-(diethylamino)propyloxy]benzenesulphonyl}indolizine]",activity at 1 µM,isolated rat aorta,18.4%
same,activity at 0.1 µM,isolated rat aorta,71.2%
same,anti-α effect,[1]; 2.5 mg/kg i.v.,+++
same,anti-β effect,[2]; 2.5 mg/kg i.v.,+++
"CCCc1oc2ccccc2c1S(=O)(=O)c1ccc(OCCCN(C)CCc2ccc(OC)c(OC)c2)cc1 [Ex. 67, 2-n-Propyl-3-[4-{3-[N-methyl-N-(3,4-dimethoxy-β-phenethyl)amino]propyloxy}benzenesulphonyl]benzofuran oxalate]",activity at 1 µM,isolated rat aorta,9.3%
same,activity at 0.1 µM,isolated rat aorta,38.3%
same,activity at 0.01 µM,isolated rat aorta,80.9%
same,anti-α effect,[1]; 1.3 mg/kg i.v.,+++
same,inhibition in vivo at 1.3 mg/kg,"[2]; Canis lupus familiaris, iv, 1.3 mg/kg i.v.",< 50%
"CCCCN(C)CCCOc1ccc(S(=O)(=O)c2c(CC)cn3ccccc23)cc1.O=C(O)C(=O)O [Ex. 20, 2-Ethyl-1-{4-[3-(N-methyl-N-butylamino)propyloxy]benzenesulphonyl}indolizine oxalate]",activity at 1 µM,isolated rat aorta,6.8%
same,activity at 0.1 µM,isolated rat aorta,60%
same,anti-α effect,[1]; 5 mg/kg i.v.,+++
same,anti-β effect,[2]; 5 mg/kg i.v.,+++
"CCCCN(CCCC)CCCOc1c(C)cc(C(=O)c2c(CC)cn3ccccc23)cc1C [Compound D, reference compound]",activity at 1 µM,isolated rat aorta,19.3%
same,activity at 0.1 µM,isolated rat aorta,64.7%
same,inhibition in vivo at 10 mg/kg,"[1]; Canis lupus familiaris, iv, 10 mg/kg i.v., known compounds",< 50%
same,inhibition in vivo at 10 mg/kg,"[2]; Canis lupus familiaris, iv",< 50%
"CCCCN(CCCC)CCCOc1ccc(S(=O)(=O)c2c(-c3ccccc3)cn3ccccc23)cc1.Cl [Ex. 18, 2-Phenyl-1-{4-[3-(di-n-butylamino)propyloxy]benzenesulphonyl}indolizine hydrochloride]",activity at 1 µM,isolated rat aorta,55.6%
same,LD50,[3],35 mg/kg
"COc1cc(CCN(C)CCCOc2ccc(S(=O)(=O)c3c(C(C)C)cn4ccccc34)cc2)cc(OC)c1 [Ex. 145, 2-isopropyl-1[4-{3-[N-methyl-N-(3,5-dimethoxy-β-phenethyl)amino]propyloxy}benzenesulphonyl]indolizine acid oxalate]",activity at 0.01 µM,isolated rat aorta,21%
same,activity at 0.001 µM,isolated rat aorta,57.7%
same,activity at 0.0001 µM,isolated rat aorta; 10^-10 M,81%
same,anti-α effect,[1]; 0.033 mg/kg i.v.,+++
same,inhibition in vivo at 0.033 mg/kg,"[2]; Canis lupus familiaris, iv, 0.033 mg/kg i.v.",≥ 50%
"COc1ccc(CCN(C)CCCOc2ccc(S(=O)(=O)c3c(C(C)C)cn4ccccc34)cc2)cc1 [Ex. 47, 2-Isopropyl-1-[4-{3-[N-methyl-N-(4-methoxy-β-phenethyl)amino]propyloxy}benzenesulphonyl]indolizine acid oxalate]",activity at 0.1 µM,isolated rat aorta,17.9%
same,activity at 0.01 µM,isolated rat aorta,69.6%
same,activity at 0.001 µM,isolated rat aorta,86.5%
same,inhibition in vivo at 0.3 mg/kg,[1]; [4],≥ 50%
same,inhibition in vivo at 0.3 mg/kg,[2]; [4],< 50%
"CCCCc1cn2ccccc2c1S(=O)(=O)c1ccc(OCCCNC(C)(C)C)cc1.O=C(O)C(=O)O [Ex. 29, 2-n-Butyl-1-{4-[3-(tert-butylamino)propyloxy]benzenesulphonyl}indolizine oxalate]",activity at 1 µM,isolated rat aorta,30.7%
same,anti-α effect,[1]; 5 mg/kg i.v.,+++
same,inhibition in vivo at 5 mg/kg,[2]; [5],≥ 50%
"COc1ccc(CCN(C)CCCOc2ccc(S(=O)(=O)c3c(C(C)C)nn4ccccc34)cc2)cc1OC [Ex. 71, 2-isopropyl-3-[4-{3-[N-methyl-N-(3,4-dimethoxy-β-phenethyl)amino]propyloxy}benzenesulphonyl]pyrazolo(1,5-a]pyridine oxalate]",activity at 1 µM,isolated rat aorta,0%
same,activity at 0.1 µM,isolated rat aorta,15.1%
same,activity at 0.01 µM,isolated rat aorta,67.1%
same,activity at 0.001 µM,isolated rat aorta,84.9%
same,anti-α effect,[1]; 0.13 mg/kg i.v.,+++
same,inhibition in vivo at 0.13 mg/kg,"[2]; Canis lupus familiaris, iv",≥ 50%
"CCc1cn2ccccc2c1S(=O)(=O)c1ccc(OCCCN2CCCCC2)cc1.Cl [Ex. 2, 2-ethyl-1-[4-(3-piperidinopropyloxy)benzenesulphonyl]indolizine hydrochloride]",activity at 1 µM,isolated rat aorta,22.6%
same,activity at 0.1 µM,isolated rat aorta,79.8%
same,anti-α effect,[1]; 5 mg/kg i.v.,+++
same,inhibition in vivo at 5 mg/kg,[2]; [5],≥ 50%
"COc1ccc(CCN(C)CCCOc2ccc(S(=O)(=O)c3ccccc3)cc2)cc1OC [Ex. 63, 4-{3-[N-methyl-N-(3,4-dimethoxy-β-phenethyl)amino]propyloxy}benzenesulphonylbenzene hydrochloride]",activity at 1 µM,isolated rat aorta,21.4%
same,activity at 0.1 µM,isolated rat aorta,73.7%
same,anti-α effect,[1]; 10.1 mg/kg i.v.,+++
same,inhibition in vivo at 10.1 mg/kg,"[2]; Canis lupus familiaris, iv, 10.1 mg/kg i.v.",≥ 50%
"CCCCN(CCCC)CCCOc1ccc(S(=O)(=O)c2c(-c3ccccc3)cn3ccccc23)cc1C.Cl [Ex. 19, 2-Phenyl-1-{4-[3-(di-n-butylamino)propyloxy]-3-methylbenzenesulphonyl}indolizine hydrochloride]",activity at 1 µM,isolated rat aorta,77.2%
same,LD50,[3],60 mg/kg
"CCCCN(CCCC)CCCOc1ccc(S(=O)(=O)c2c(C)cn3ccccc23)cc1.O=C(O)C(=O)O [Ex. 6, 2-Methyl-1-{4-[3-(di-n-butylamino)propyloxy]benzenesulphonyl}indolizine oxalate]",activity at 1 µM,isolated rat aorta,13.9%
same,activity at 0.1 µM,isolated rat aorta,69.1%
same,LD50,[3],31 mg/kg
"COc1ccc(CCN(C)CCCOc2ccc(S(=O)(=O)c3c(C(C)C)cc4ccccn34)cc2)cc1OC [Ex. 55, 2-isopropyl-3-[4-{3-[N-methyl-N-(3,4-dimethoxy-β-phenethyl)amino]propyloxy}benzenesulphonyl]indolizine oxalate]",activity at 0.1 µM,isolated rat aorta,9.5%
same,activity at 0.01 µM,isolated rat aorta,34.1%
same,activity at 0.001 µM,isolated rat aorta,68.7%
same,anti-α effect,[1]; 0.13 mg/kg i.v.,+++
same,inhibition in vivo at 0.13 mg/kg,"[2]; Canis lupus familiaris, iv",≥ 50%
"CCCCN(CCCC)CCCOc1ccc(S(=O)(=O)c2c(C(C)C)cn3ccccc23)cc1 [Ex. 1, 2-isopropyl-1-{4-[3-(di-n-butylamino)propyloxy]benzenesulphonyl}indolizineoxalate]",activity at 1 µM,isolated rat aorta,2%
same,activity at 0.1 µM,isolated rat aorta,18.9%
same,activity at 0.01 µM,isolated rat aorta,61%
same,inhibition in vivo at 0.5 mg/kg,[1]; [6],≥ 50%
same,inhibition in vivo at 0.5 mg/kg,[2]; [6],≥ 50%
"CCCCc1oc2ccccc2c1S(=O)(=O)c1ccc(OCCCN(C)CCc2ccc(OC)c(OC)c2)cc1 [Ex. 69, 2-n-butyl-3-[4-{3-[N-methyl-N-(3,4-dimethoxy-β-phenethyl)amino]propyloxy}benzenesulphonyl]benzofuran hydrochloride]",activity at 1 µM,isolated rat aorta,36.8%
same,activity at 0.1 µM,isolated rat aorta,59%
same,activity at 0.01 µM,isolated rat aorta,76%
same,anti-α effect,[1]; 1.2 mg/kg i.v.,+++
same,anti-β effect,[2]; 1.2 mg/kg i.v.,+ +
"CCc1oc2ccccc2c1S(=O)(=O)c1ccc(OCCN(CC)CC)cc1 [Compound B, reference compound]",activity at 1 µM,isolated rat aorta,52.2%
same,activity at 0.1 µM,isolated rat aorta,84.9%
same,anti-α effect,"[1]; 10 mg/kg i.v., known compounds",+++
same,inhibition in vivo at 10 mg/kg,"[2]; Canis lupus familiaris, iv",< 50%

# Reference: patent publication US5147878A, “Aminoalkoxyphenyl derivatives, process of preparation and compositions containing the same” (Sanofi, priority 1986, dated 1992)
